Measured values from US7317014B2, “Bio-active pyrimidine molecules” (Orchid Research Laboratories, Ltd., priority 2002, dated 2008).

Key:
Male Wistar rats = assay: Rat carrageenan paw edema test; type: in vivo; details: oral
MCF7 = assay: DTP human tumor cell line one-dose prescreen, MCF7; type: cell-based; details: Concentration (100 μm), Breast MCF7, test/control (T/C)
Method: (§1) The current assay utilizes a 384 well plate format and fluorescent staining technologies resulting in greater screening capacity for testing of synthetic samples. Cell Lines The cell lines of the cancer screening panel are grown in RPMI 1640 medium containing 5% fetal bovine serum and 2 mM L-glutamine. For a typical screening experiment, cells are inoculated into 96 well microtiter plates in 100 μL. After cell inoculation, the microtiter plates are incubated at 37° C., 5% CO2, 95% air and 100% relative humidity for 24 h prior to addition of experimental drugs. The cells are plated a densities of 5000 cells/well (MCF7), 1000 cells/well (NCI-H460), and 7500 cells/well (SF-268) to allow for varying doubling time of the cell lines. Each plate contains all three cell lines, a series of dilutions of standard agents, total kill wells and appropriate controls. Plates are incubated under standard conditions for 24 hours prior to addition of experimental compounds or extracts. Addition of Experimental Agents (Pure Compounds) […] Two standard drugs, meaning that their activities against the cell lines are well documented, are tested against each cell line: NSC 19893 (5-FU) and NSC 123127 (Adriamycin). Endpoint Measurement After compound addition, plates are incubated at standard conditions for ?hours, 10 μl/well Alamar Blue is added and the plates are incubated for an additional 4 hours. Fluorescence is measured using an excitation wavelength of 530 nm and an emission wavelength of 590 nm. Calculation of Percent Test Cell Growth/Control (Untreated) Cell Growth (T/C) Calculation of Percent Test Cell Growth/Control (Untreated) Cell Growth (T/C) Percent growth is calculated on a plate-by-plate basis for test wells relative to control wells. Percent Growth is expressed as the ratio of fluorescence of the test well to the average fluorescence of the control wells ×100.

COX-2 = target: T1, COX-2 (Homo sapiens, UniProt P35354); assay: Human whole blood assay, COX-2 inhibition (PGE2 after LPS); type: cell-based; details: Conc. 0.1 μM, 24 h
T1 construct: incubation of human blood with lipopolysaccharide (LPS), which induces COX-2 production in the blood; endogenous in cells; host or cells: fresh human whole blood from male volunteers, LPS-stimulated, aspirin-pretreated
T1 sequence (P35354 18-604): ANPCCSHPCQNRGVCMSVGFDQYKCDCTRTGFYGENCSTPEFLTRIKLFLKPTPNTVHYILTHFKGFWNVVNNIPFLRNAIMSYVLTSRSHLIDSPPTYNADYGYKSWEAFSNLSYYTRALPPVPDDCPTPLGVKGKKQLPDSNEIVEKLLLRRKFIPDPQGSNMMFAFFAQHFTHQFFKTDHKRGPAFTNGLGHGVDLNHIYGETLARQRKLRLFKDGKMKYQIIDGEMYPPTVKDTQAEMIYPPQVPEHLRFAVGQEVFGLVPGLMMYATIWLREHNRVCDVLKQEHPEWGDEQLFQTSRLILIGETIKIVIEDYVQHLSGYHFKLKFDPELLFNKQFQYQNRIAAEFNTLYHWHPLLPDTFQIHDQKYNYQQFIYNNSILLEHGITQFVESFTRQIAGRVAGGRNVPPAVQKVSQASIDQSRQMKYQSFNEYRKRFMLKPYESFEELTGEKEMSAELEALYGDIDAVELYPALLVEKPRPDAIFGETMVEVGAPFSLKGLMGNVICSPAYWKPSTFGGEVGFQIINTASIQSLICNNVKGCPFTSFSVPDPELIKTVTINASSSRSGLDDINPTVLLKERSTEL
Method: The COX-2 inhibition activity of the compounds illustrated in the examples was determined by the following method. Human Whole Blood Assay Human whole blood provides a protein and cell rich milieu appropriate for the study of biochemical efficacy of anti-inflammatory compounds such as selective COX-2 inhibitors. […] This is correlating with the observation that COX-2 inhibitors have no effect on prostaglandin E2 (PGE2) production in normal blood. These inhibitors are active only after incubation of human blood with lipopolysaccharide (LPS), which induces COX-2 production in the blood. Method Fresh blood was collected in tubes containing potassium EDTA by vein puncture from male volunteers. The subjects should have no apparent inflammatory conditions and not taken NSAIDs for atleast 7 days prior to blood collection. Blood was treated with aspirin in vitro (10 μg/ml, at time zero) to inactivate COX-1, and then with LPS (10 μg/ml) along with test agents or vehicle. The blood was incubated for 24 h at 37° C., after which the tubes were centrifuged, the plasma was separated and stored at −80° C. (J. Pharmacol. Exp. Ther., 271, 1705, 1994; Proc. Natl. Acad. Sci. USA., 96, 7563, 1999). The plasma was assayed for PGE2 using Cayman ELISA kit as per the procedure outlined by the manufacturer (Cayman Chemicals, Ann Arbor, USA). The plasma was also tested for TNF-α, IL-1β, and IL-6 using appropriate human ELISA kit as per the procedure of manufacturer (Cayman Chemicals, Ann Arbor, USA).

SF-268 = assay: DTP human tumor cell line one-dose prescreen, SF-268; type: cell-based; details: Concentration (100 μm), CNS SF-268, test/control (T/C)
Method: as §1

NCI-H460 = assay: DTP human tumor cell line one-dose prescreen, NCI-H460; type: cell-based; details: Concentration (100 μm), Lung NCI-H460, test/control (T/C)
Method: as §1

IL-6 = IL-6 production from LPS-stimulated human monocytes (ELISA); type: cell-based; details: Monocyte; for inhibition at 1 µM: Conc. 1 μM; for inhibition at 10 µM: Conc. 10 μM
Method: Interleukin-6(IL-6) This assay determines the effect of test compounds on the production of IL-6 from human monocytes. Compounds are tested for their ability to downregulate the production of IL-6 in activated monocytes. Test compounds were incubated for three, six and twenty four hours with human monocytes. Lipopolysaccharide was used to stimulate the monocytes. The level of Interleukin-6 is quantitated using Enzyme-Linked Immunosorbent assay performed in a 96 well format.

TNF-α = TNF-α production from LPS-stimulated human monocytes (ELISA); type: cell-based; details: Monocyte

melting point [°C]	SMILES	further results
126 to 128	[N-]=[N+]=Nc1nc(C(F)(F)F)nc(-c2ccccc2)c1-c1ccccc1	–
129 to 131	Clc1ccc(-c2nc(Cl)nc(Cl)c2-c2ccccc2)cc1 [Example 9, 6-(4-chlorophenyl)-2,4-dichloro-5-phenylpyrimidine]	Rat Paw Edema model % Inhibition (10 mg/kg body weight) (Male Wistar rats): 42.8%; Percentage Growth Breast MCF7 (MCF7): 1; inhibition at 0.1 µM (COX-2): 60.5%; Percentage Growth CNS SF-268 (SF-268): 1; Percentage Growth Lung NCI-H460 (NCI-H460): 0
88 to 90	CSc1ccc(-c2c(Cl)nc(Cl)nc2-c2ccccc2)cc1 [Example 12, 2,4-dichloro-5-[4-(methylthio)phenyl]-6-phenylpyrimidine]	Percentage Growth Breast MCF7 (MCF7): −1; Percentage Growth CNS SF-268 (SF-268): 4; Percentage Growth Lung NCI-H460 (NCI-H460): 0
105 to 107	FC(F)(F)c1nc(Cl)c(-c2ccccc2)c(-c2ccccc2)n1 [Example 1, 4-chloro-5,6-diphenyl-2-(trifluoromethyl)pyrimidine]	inhibition at 1 µM (IL-6): 62.5%
113 to 116	CC(=O)NNc1nc(C(F)(F)F)nc(-c2ccccc2)c1-c1ccccc1	–
182 to 186	NNc1nc(C(F)(F)F)nc(-c2ccccc2)c1-c1ccccc1 [Example 21, 4-hydrazino-5,6-diphenyl-2-(trifluoromethyl)pyrimidine]	inhibition at 1 µM (IL-6): 67.5%
130 to 132	Cc1ccc(-c2nc(Cl)nc(Cl)c2-c2ccccc2)cc1 [Example 8, 2,4-dichloro-6-(4-methylphenyl)-5-phenylpyrimidine]	Percentage Growth Breast MCF7 (MCF7): 5; Percentage Growth CNS SF-268 (SF-268): 6; Percentage Growth Lung NCI-H460 (NCI-H460): 1
141 to 143	O=c1nc(Cl)cc(-c2ccccc2)n1-c1ccccc1	–
144 to 146	Clc1nc(Cl)c(-c2ccccc2)c(-c2ccccc2)n1 [Example 7, 2,4-dichloro-5,6-diphenylpyrimidine]	Rat Paw Edema model % Inhibition (10 mg/kg body weight) (Male Wistar rats): 60.9%
132 to 134	COc1ccc(-c2c(Cl)nc(Cl)nc2-c2ccccc2)cc1 [Example 11, 2,4-dichloro-5-(4-methoxyphenyl)-6-phenylpyrimidine]	Percentage Growth Breast MCF7 (MCF7): 5; Percentage Growth CNS SF-268 (SF-268): 2; inhibition at 1 µM (TNF-α; Conc. 1 μM): 29.2%; Percentage Growth Lung NCI-H460 (NCI-H460): 0
123 to 125	Clc1ccc(-c2c(Cl)nc(Cl)nc2-c2ccccc2)cc1 [Example 10, 5-(4-chlorophenyl)-2,4-dichloro-6-phenylpyrimidine]	Percentage Growth Breast MCF7 (MCF7): 0; Percentage Growth CNS SF-268 (SF-268): 0; Percentage Growth Lung NCI-H460 (NCI-H460): 0

The remaining lines, values behind:

SMILES	melting point [°C]	further results
CC(=O)NNc1nc(C(F)(F)F)nc(-c2ccc(S(C)(=O)=O)cc2)c1-c1ccc(Cl)cc1	254 to 256	–
NNc1nc(C(F)(F)F)nc(-c2ccc(F)cc2)c1-c1ccccc1	175 to 177	–
CSc1ccc(-c2c(NN)nc(NN)nc2-c2ccccc2)cc1	207 to 210	–
CS(=O)(=O)c1ccc(-c2nc(C(F)(F)F)nc(NN)c2-c2ccc(Cl)cc2)cc1	266 to 269	–
CSc1ccc(-c2c(NN)nc(Cl)nc2-c2ccccc2)cc1	272 to 274	–
CS(=O)(=O)c1ccc(-c2nc(C(F)(F)F)nc(N=[N+]=[N-])c2-c2ccc(Cl)cc2)cc1	317 to 320	–
Fc1ccc(-c2nc(C(F)(F)F)nc(Cl)c2-c2ccccc2)cc1	67 to 68	–
CS(=O)(=O)c1ccc(-c2nc(C(F)(F)F)nc(N=[N+]=[N-])c2-c2ccc(F)cc2)cc1	285 to 288	–
CS(=O)(=O)c1ccc(-c2nc(C(F)(F)F)nc(N=[N+]=[N-])c2-c2ccccc2)cc1	172 to 175	–
Cc1ccc(-c2nc(Cl)nc(Cl)c2-c2ccc(Cl)cc2)cc1	223 to 225	–
CC(=O)NNc1nc(C(F)(F)F)nc(-c2ccc(F)cc2)c1-c1ccccc1	149 to 153	–
CC(=O)NNc1nc(C(F)(F)F)nc(-c2ccc(C)cc2)c1-c1ccccc1 [Example 32, N′-[6-(4-methylphenyl)-5-phenyl-2-(trifluoromethyl)pyrimidin-4-yl]acetohydrazide]	147 to 152	inhibition at 10 µM (IL-6): 53.3%
CC(=O)NNc1nc(C(F)(F)F)nc(-c2ccc(S(C)(=O)=O)cc2)c1-c1ccccc1	265 to 268	–
CS(=O)(=O)c1ccc(-c2nc(C(F)(F)F)nc(NNC(=O)C(F)(F)F)c2-c2ccc(Cl)cc2)cc1	307 to 309	–
Cc1ccc(-c2nc(C(F)(F)F)nc(NN)c2-c2ccccc2)cc1 [Example 22, 4-hydrazino-6-(4-methylphenyl)-5-phenyl-2-(trifluoromethyl)pyrimidine]	188 to 191	inhibition at 1 µM (IL-6): 52.3%
Cc1ccc(-c2nc(C(F)(F)F)nc(Cl)c2-c2ccccc2)cc1 [Example 2, 4-chloro-6-(4-methylphenyl)-5-phenyl-2-(trifluoromethyl)pyrimidine]	97 to 100	inhibition at 1 µM (IL-6): 62.3%
CSc1ccc(-c2c(Cl)nc(Cl)nc2-c2ccc(Cl)cc2)cc1 [Example 13, 2,4-dichloro-6-(4-chlorophenyl)-5-[4-(methylthio)phenyl]pyrimidine]	144 to 146	Rat Paw Edema model % Inhibition (10 mg/kg body weight) (Male Wistar rats): 47.8%; inhibition at 0.1 µM (COX-2): 45.7%
CS(=O)(=O)c1ccc(-c2nc(C(F)(F)F)nc(NN)c2-c2ccc(F)cc2)cc1	286 to 290	–
CS(=O)(=O)c1ccc(-c2nc(C(F)(F)F)nc(NN)c2-c2ccccc2)cc1 [Example 24, 4-hydrazino-6-[4-(methylsulfonyl)phenyl]-5-phenyl-2-(trifluoromethyl)pyrimidine]	272 to 275	inhibition at 10 µM (IL-6): 66%
CS(=O)(=O)c1ccc(-c2nc(C(F)(F)F)nc(Cl)c2-c2ccccc2)cc1 [Example 4, 4-chloro-6-[4-(methylsulfonyl)phenyl]-5-phenyl-2-(trifluoromethyl)pyrimidine]	156 to 159	Percentage Growth Breast MCF7 (MCF7): 0; Percentage Growth CNS SF-268 (SF-268): 3; inhibition at 10 µM (TNF-α; Conc. 10 μM): 55.4%; Percentage Growth Lung NCI-H460 (NCI-H460): 0
